# ChEMBL document CHEMBL1136059 (Bioorg Med Chem Lett, 2002)
# Columns and labels:
# [1] = target: T1, Prostaglandin G/H synthase 1 (Homo sapiens, UniProt P23219); assay: In vitro inhibition of cyclooxygenase-1 via inhibition of TXB2 generation in the presence of 1 uM arachidonic acid in human platelets at concentration of 10 uM; assay type: functional
# [2] = target: T2, Prostaglandin G/H synthase 2 (Homo sapiens, UniProt P35354); assay type: functional
# T2 sequence (P35354 whole entry): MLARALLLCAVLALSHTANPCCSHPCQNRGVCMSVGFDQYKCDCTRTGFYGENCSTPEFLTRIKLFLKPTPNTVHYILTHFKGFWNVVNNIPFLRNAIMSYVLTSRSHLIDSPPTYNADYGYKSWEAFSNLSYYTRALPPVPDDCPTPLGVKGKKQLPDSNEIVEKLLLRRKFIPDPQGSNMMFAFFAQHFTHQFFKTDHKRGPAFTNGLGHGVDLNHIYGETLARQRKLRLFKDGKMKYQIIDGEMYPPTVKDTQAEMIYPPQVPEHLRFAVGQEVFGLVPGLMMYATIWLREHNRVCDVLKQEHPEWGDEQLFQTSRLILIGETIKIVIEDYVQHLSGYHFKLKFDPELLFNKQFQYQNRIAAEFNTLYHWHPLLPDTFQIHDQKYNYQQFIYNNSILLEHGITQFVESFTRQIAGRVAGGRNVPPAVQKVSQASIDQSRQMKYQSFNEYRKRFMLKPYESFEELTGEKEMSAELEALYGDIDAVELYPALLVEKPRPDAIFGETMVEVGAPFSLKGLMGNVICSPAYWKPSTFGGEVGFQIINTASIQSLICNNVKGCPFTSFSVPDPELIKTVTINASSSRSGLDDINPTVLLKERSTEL
# [3] = target: T3, Prostaglandin G/H synthase 2 (Homo sapiens) (UniProt P35354); assay: In vitro inhibition of cyclooxygenase-2 via inhibition of PGE-2 generation by LPS-stimulated monocytes isolated from human blood at a concentration of 20 uM; assay type: functional
# T3 sequence (whole entry): T2 sequence (P35354 whole entry)
# [4] = target: T1, Prostaglandin G/H synthase 1; assay type: functional
# [5] = target: T1, Prostaglandin G/H synthase 1; assay: In vitro inhibition of cyclooxygenase-1 via inhibition of TXB2 generation in the presence of 1 uM arachidonic acid in human platelet; assay type: functional
# [6] = target: T3, Prostaglandin G/H synthase 2 (Homo sapiens); assay: In vitro inhibition of cyclooxygenase-2 via inhibition of PGE-2 generation by LPS-stimulated monocytes isolated from human blood; assay type: functional
# [7] = target: T3, Prostaglandin G/H synthase 2 (Homo sapiens); assay: In vitro inhibition of cyclooxygenase-2 via inhibition of PGE-2 generation by LPS-stimulated monocytes isolated from human blood at concentration of 20 uM; assay type: functional
# [8] = target: T1, Prostaglandin G/H synthase 1; assay: In vitro inhibition of cyclooxygenase-1 via inhibition of TXB2 generation in the presence of 1 uM arachidonic acid in human platelets; assay type: functional
# [9] = target: T1, Prostaglandin G/H synthase 1; assay: In vitro inhibition of cyclooxygenase-1 via inhibition of TXB2 generation in the presence of 1 uM arachidonic acid in human platelets
# [10] = target: T2, Prostaglandin G/H synthase 2; assay: Tested in vitro for inhibition of cyclooxygenase-2 in human blood assay; assay type: functional
# [11] = target: T1, Prostaglandin G/H synthase 1; assay: Tested in vitro for inhibition of cyclooxygenase-1 in human blood assay; assay type: functional
# [12] = target: T2, Prostaglandin G/H synthase 2; assay: In vitro inhibition of cyclooxygenase-2 via inhibition of PGE-2 generation by LPS-stimulated monocytes isolated from human blood; inactive; assay type: functional
# T1 sequence (P23219 whole entry): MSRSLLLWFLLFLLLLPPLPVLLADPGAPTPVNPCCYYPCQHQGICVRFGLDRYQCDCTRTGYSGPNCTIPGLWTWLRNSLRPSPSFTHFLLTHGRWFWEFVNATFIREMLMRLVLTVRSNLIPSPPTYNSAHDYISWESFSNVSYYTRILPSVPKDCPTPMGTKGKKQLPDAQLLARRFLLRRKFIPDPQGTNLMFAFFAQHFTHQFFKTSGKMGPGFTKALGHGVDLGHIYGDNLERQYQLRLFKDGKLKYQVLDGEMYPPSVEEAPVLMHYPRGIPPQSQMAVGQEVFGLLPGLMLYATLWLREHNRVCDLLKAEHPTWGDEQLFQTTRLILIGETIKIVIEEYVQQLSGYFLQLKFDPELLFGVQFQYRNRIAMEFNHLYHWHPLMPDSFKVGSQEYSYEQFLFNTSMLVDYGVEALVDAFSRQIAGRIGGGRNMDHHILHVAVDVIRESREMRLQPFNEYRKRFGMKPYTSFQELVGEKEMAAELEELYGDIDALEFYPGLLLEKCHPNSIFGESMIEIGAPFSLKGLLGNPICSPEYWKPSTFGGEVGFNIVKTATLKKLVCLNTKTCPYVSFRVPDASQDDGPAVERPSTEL
Compound,inhibition [1],IC50 [2],other results
NS(=O)(=O)/C=C/c1ccc(C(=O)c2ccccc2)cc1CO,25%,8.4 µM,
CCc1cc(/C=C/S(C)(=O)=O)cc(C(=O)c2ccccc2)c1,16%,,inhibition [3]: 40%
CC(=O)c1cc(/C=C/S(N)(=O)=O)cc(C(=O)c2ccccc2)c1,,20 µM,IC50 [4]: 6.4 µM
CCc1cc(/C=C/C(=O)O)cc(C(=O)c2ccccc2)c1,,2.6 µM,
NS(=O)(=O)/C=C/c1cccc(C(=O)c2ccccc2)c1,0%,,inhibition [3]: 37%
CCOC(=O)/C=C/c1cc(CC)cc(C(=O)c2ccccc2)c1,,5 µM,
CCc1cc(/C=C/C(N)=O)cc(C(=O)c2ccccc2)c1,,1.8 µM,IC50 [5]: 0.074 µM
Cc1cc(/C=C/S(N)(=O)=O)ccc1C(=O)c1ccccc1,0%,,inhibition [6]: 41%
CC(C)=Cc1cc(/C=C/S(N)(=O)=O)cc(C(=O)c2ccccc2)c1,,0.98 µM,IC50 [4]: 3.6 µM
N#Cc1cc(/C=C/S(N)(=O)=O)cc(C(=O)c2ccccc2)c1,,5.6 µM,IC50 [4]: 1.7 µM
NS(=O)(=O)/C=C/c1cc(CO)cc(C(=O)c2ccccc2)c1,,,IC50 [4]: 5.4 µM
Cc1cc(C(=O)c2ccccc2)ccc1/C=C/S(N)(=O)=O,0%,,inhibition [7]: 14%
NS(=O)(=O)/C=C/c1ccccc1C(=O)c1ccccc1,39%,,inhibition [7]: 43%
CCN(CC)Cc1cc(/C=C/S(N)(=O)=O)cc(C(=O)c2ccccc2)c1,,7.1 µM,
CC(C(=O)O)c1cc(/C=C/S(C)(=O)=O)cc(C(=O)c2ccccc2)c1 (stereo not given),,9.7 µM,
Cc1ccc(/C=C/S(N)(=O)=O)cc1C(=O)c1ccccc1,,19 µM,inhibition [8]: 49%
CN(C)C(=O)c1cc(/C=C/S(N)(=O)=O)cc(C(=O)c2ccccc2)c1,,,inhibition [3]: 31%
CS(=O)(=O)c1ccc(C2=C(c3ccccc3)C(=O)OC2)cc1,0%,,
CCc1cc(C(=O)c2ccccc2)ccc1/C=C/S(N)(=O)=O,,5.6 µM,IC50 [9]: 6.3 µM
CCc1ccc(/C=C/S(N)(=O)=O)cc1C(=O)c1ccccc1,,0.77 µM,IC50 [4]: 0.2 µM
CCc1cc(/C=C/S(N)(=O)=O)cc(C(=O)c2ccccc2)c1,,0.2 µM,IC50 [10]: 12 µM; IC50 [4]: 18 µM; IC50 [11]: 100 µM
CS(=O)(=O)/C=C/c1cccc(C(=O)c2ccccc2)c1,,,IC50 [12]: Not Active
CS(=O)(=O)/C=C/c1ccc(C(=O)c2ccccc2)cc1,14%,,inhibition [7]: 6%
